Measured values: ChEMBL document CHEMBL1201862, “PubChem BioAssay data set” (2004)
Structures can show the parent of a compound that is named as a salt.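 Step 1: Grow cells in 96-well plates. Step 2: Expose to compound for 48 hours at 5 concentrations. Step 3: Interpolate endpoints linearly; if unreached, use highest concentration. GI50: concentration for 50% inhibition of growth.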 Active and inactive are the calls of the source. Cut-off read from the data, not from the text of the source: active = GI50 up to about 1.1 µM and inactive = higher.

What was measured:
Test in all cases: growth of human tumour cells (NCI), 48 h
[1] = test system: BT-549
[2] = test system: MDA-MB-231
[3] = test system: T47D
[4] = test system: KM-20L2
[5] = test system: DMS-114
[6] = test system: DLD-1
[7] = test system: DMS-273

| Structure (SMILES) | GI50 [1] | GI50 [2] | GI50 [3] | GI50 [4] | GI50 [5] | GI50 [6] | GI50 [7] |
| --- | --- | --- | --- | --- | --- | --- | --- |
| C=C1CC[C@@H](CCC2CCC3(OC2)O[C@]2(O)CC[C@@]3(C)OC2(C)C)C(C)(C)[C@H]1C/C=C1\CCOC1=O (stereo partly specified) | 11.7 µM (inactive) | 23.6 µM (inactive) |  |  |  |  |  |
| COc1ccc(C2CC(=O)CC(c3ccc(OC)cc3)C23C(=O)NC(=S)NC3=O)cc1 (stereo unspecified) | > 100 µM (inactive) |  | > 100 µM (inactive) |  |  |  |  |
| COc1cc(S(=O)(=O)Nc2nc(-c3ccc(N4C(=O)C(CC(=O)O)SC4c4cccs4)cc3)cs2)ccc1Cl (stereo unspecified) |  | 81.1 µM (inactive) | 25.9 µM (inactive) |  |  |  |  |
| O=C(OCc1ccccc1[N+](=O)[O-])N1c2ccccc2[C@@]23O[C@]24CCC[C@H]3C#C/C=C\C#C[C@H]14 | 49.5 µM (inactive) | > 100 µM (inactive) | 73.8 µM (inactive) |  |  |  |  |
| CC1(C)COC(c2cccc(C(=O)c3ccccc3)c2)=N1 |  | 33.4 µM (inactive) | 25.7 µM (inactive) |  |  |  |  |
| COc1cc(/C=C/C(=O)OCCc2ccccc2)ccc1O | 14.7 µM (inactive) | 14.2 µM (inactive) | 13.5 µM (inactive) |  |  |  |  |
| NCCCCC(N)C(=O)N1CCN(c2nc(N3CCCC3)c3nc(Cl)c(NCc4ccccc4)nc3n2)CC1 (stereo unspecified) | 18.5 µM (inactive) | 18.1 µM (inactive) |  |  |  |  |  |
| CC(=O)C(=N\Nc1ccc(Cl)cc1)/C(C)=N/c1ccc(C)cc1 | 51.4 µM (inactive) | 37.5 µM (inactive) | 38.5 µM (inactive) |  |  |  |  |
| Oc1ccc(C(O)C2CCCCN2)cc1O (stereo unspecified) [RIMITEROL HYDROBROMIDE] | > 100 µM (inactive) | > 100 µM (inactive) | 23.8 µM (inactive) |  |  |  |  |
| COc1cc2c(c3c1c(=O)c1ccccc1n3C)C=CC1(CCCCC1)O2 | 4.84 µM (inactive) | 4.83 µM (inactive) | 4.41 µM (inactive) |  |  |  |  |
| NN(CC(=O)O)CC(=O)O | > 100 µM (inactive) | > 100 µM (inactive) | > 100 µM (inactive) |  |  |  |  |
| O=C1CNCCCN2CCN(CCCNCC(=O)Nc3ccc(cc3)S(=O)(=O)c3ccc(cc3)NC(=O)CNCCCN3CCN(CCCNCC(=O)Nc4ccc(cc4)S(=O)(=O)c4ccc(cc4)N1)CC3)CC2 | 30 µM (inactive) | 22.5 µM (inactive) | 27.9 µM (inactive) |  |  |  |  |
| CCOC(=O)c1nnsc1NN | > 100 µM (inactive) | 53.8 µM (inactive) |  |  |  |  |  |
| COc1cccc(N(CN2CC=CC2=O)C(C)=O)c1 |  | > 100 µM (inactive) | > 100 µM (inactive) |  |  |  |  |
| COc1ccccc1/C=C\c1cnnc2ccccc12 | > 10 µM (inactive) | > 10 µM (inactive) | > 10 µM (inactive) |  |  |  |  |
| COc1ccc(OC)c2c(C)ccnc12 | 27.4 µM (inactive) | 34 µM (inactive) | 22.5 µM (inactive) |  |  |  |  |
| COc1ccccc1N1C(=O)CSC1c1cccc(Oc2ccccc2)c1 (stereo unspecified) | 17.1 µM (inactive) | 16.4 µM (inactive) | 18.3 µM (inactive) |  |  |  |  |
| C[C@]12CC[C@H](OC3CCCCO3)CC1=CC[C@@H]1C2CC[C@]2(C)/C(=N/O)CCC12 (stereo partly specified) |  |  |  | 12.6 µM (inactive) | 17.5 µM (inactive) | 48.2 µM (inactive) | 17.5 µM (inactive) |
| CC(=O)OCC1OC(n2cnc3nc(Br)[nH]c(=O)c32)C(OC(C)=O)C1OC(C)=O (stereo unspecified) | > 100 µM (inactive) | > 100 µM (inactive) | > 100 µM (inactive) |  |  |  |  |
| O=C(O)CCCc1nc2c(n1Cc1ccccc1)C(=O)c1ccccc1C2=O |  | 47.9 µM (inactive) | 60.5 µM (inactive) |  |  |  |  |
| CC(=O)OCC1OC(Sc2nc(-c3ccccc3)c(C#N)c(=O)n2C2OC(COC(C)=O)C(OC(C)=O)C(OC(C)=O)C2OC(C)=O)C(OC(C)=O)C(OC(C)=O)C1OC(C)=O (stereo unspecified) | > 100 µM (inactive) | > 100 µM (inactive) | > 100 µM (inactive) |  |  |  |  |
| O=C1/C(=C/c2cccc(Br)c2)Cc2ccccc21 | 34.5 µM (inactive) | 44.9 µM (inactive) |  |  |  |  |  |
| CC1(C)CCCCCCC2CC2CCCCCC(C)(C)C1=O (stereo unspecified) | > 100 µM (inactive) | 60.3 µM (inactive) | 36.9 µM (inactive) |  |  |  |  |
| CNC(=O)CCCN(C)C(=O)CCCCC(=O)N(C)C | > 62.8 µM (inactive) | > 37.8 µM (inactive) | 35 µM (inactive) |  |  |  |  |

| Structure (SMILES) | GI50 [1] | GI50 [2] | GI50 [3] | GI50 [4] | GI50 [5] | GI50 [6] | GI50 [7] |
| --- | --- | --- | --- | --- | --- | --- | --- |
| CC(=O)O[C@H]1C[C@H]2C(=S)Nc3ccccc3C(=S)N2C1 | > 100 µM (inactive) | > 100 µM (inactive) | > 100 µM (inactive) |  |  |  |  |
| CCOC(=O)c1nnc2c(C(=O)OCC)c3ccccc3n2c1N | 13.7 µM (inactive) | 19.8 µM (inactive) | 29.9 µM (inactive) |  |  |  |  |
| COC1=CC2(CC(OC)=C1OC)OC21COc2ccccc2C1=O (stereo unspecified) | > 100 µM (inactive) | > 100 µM (inactive) | 34.3 µM (inactive) |  |  |  |  |
| CC(OC(=O)NCn1cc(-c2ccccc2)nn1)c1ccccc1 (stereo unspecified) | 32.4 µM (inactive) | 34.3 µM (inactive) |  |  |  |  |  |
| O=[N+]([O-])c1cc([As](Br)c2ccc(O)c([N+](=O)[O-])c2)ccc1O | 1.88 µM (inactive) | 1.39 µM (inactive) | 0.204 µM (active) |  |  |  |  |
| COc1cc2c(cc1-c1coc3cc(O)ccc3c1=O)OCO2 [CUNEATIN] | 19.5 µM (inactive) | > 10 µM (inactive) | 29.6 µM (inactive) |  |  |  |  |
| CCSCCC(N)C(=O)O (stereo unspecified) | > 100 µM (inactive) | > 100 µM (inactive) | > 100 µM (inactive) |  |  |  |  |
| OCCN(CCO)c1ccc2c(c1)Cc1ccccc1-2 |  | 34 µM (inactive) | 13.5 µM (inactive) |  |  |  |  |
| NCCN1C(=O)c2ccccc2C1(O)c1ccc(Cl)cc1 (stereo unspecified) | 42.6 µM (inactive) | 15.5 µM (inactive) | 19.4 µM (inactive) |  |  |  |  |
| O=C1c2c[nH]nc2C(c2ccccc2)N1c1ccccc1 (stereo unspecified) | > 10 µM (inactive) | > 10 µM (inactive) | > 10 µM (inactive) |  |  |  |  |
| CC(=O)c1c(CO[N+](=O)[O-])[n+]([O-])c2ccccc2[n+]1[O-] | > 100 µM (inactive) | 53.7 µM (inactive) | 61.4 µM (inactive) |  |  |  |  |
| CCOc1ccc(/C=C2\N=C(c3ccccc3)OC2=O)cc1 | > 100 µM (inactive) |  |  |  |  |  |  |
| O=C1COc2cccnc2N1CCCCO | > 100 µM (inactive) | > 100 µM (inactive) | 38.1 µM (inactive) |  |  |  |  |
| Cc1nc(C(N)=S)sc1C(=O)C/C(=N/N)C(=O)Nc1ccc(Cl)cc1 | > 100 µM (inactive) | > 100 µM (inactive) | 46.1 µM (inactive) |  |  |  |  |
| CC(=O)Nc1cc2ccc(=O)oc2cc1Cl | > 100 µM (inactive) | > 100 µM (inactive) | > 100 µM (inactive) |  |  |  |  |
| O=c1oc(C(C(F)(F)F)C(F)(F)F)nc2ccccc12 |  | > 100 µM (inactive) |  |  |  |  |  |
| O=C1OCC2=C1C(c1ccc(Cl)cc1)c1cc3c(cc1O2)OCO3 (stereo unspecified) | 3.37 µM (inactive) | > 24.3 µM (inactive) | 4.3 µM (inactive) |  |  |  |  |
| COc1cc(/C=C2\N=C(c3ccccc3)N(/N=C/c3cc4cc(C)ccc4nc3Cl)C2=O)ccc1O | 63.8 µM (inactive) | 27.8 µM (inactive) | 56.1 µM (inactive) |  |  |  |  |
| O=C1CCCC(=O)N1n1c(Cc2ccccc2)n[nH]c1=O | > 100 µM (inactive) | > 100 µM (inactive) | > 100 µM (inactive) |  |  |  |  |
| COc1ccc2[nH]c3c([N+](=O)[O-])ccc(Cl)c3c(=O)c2c1 | 17.2 µM (inactive) | 18 µM (inactive) | 29.2 µM (inactive) |  |  |  |  |
| C[C@]12CC[C@H]3[C@@H](CCC4=CC(=O)CC[C@@]43C)[C@@H]1CC[C@@H]2OC(=O)c1cccc2c(=O)c3ccccc3[nH]c12 | 58.1 µM (inactive) | > 100 µM (inactive) | 57.3 µM (inactive) |  |  |  |  |
| COc1ccccc1NC(=S)N/N=C1\C(=O)Nc2ccccc21 |  | > 100 µM (inactive) | > 100 µM (inactive) |  |  |  |  |
| Cc1cc(-c2nc3cc(F)ccc3s2)ccc1NC(=O)[C@@H](N)CCCCN | 12.9 µM (inactive) | 2.29 µM (inactive) | < 0.0138 µM (active) |  |  |  |  |
